We go through 25 compounds from ChEMBL document CHEMBL1143085, “Synthesis and in vitro antimycobacterial activity of B-ring modified diaryl ether InhA inhibitors” (Bioorg Med Chem Lett, 2008).

pIC50, pKi: −log10 of the molar value. Converted amounts (≈) assume the structure as drawn. A value given as a limit tells only on which side of the number the result lay.

The test system of data set [1] is Mycobacterium tuberculosis. Description: Antimicrobial activity against Mycobacterium tuberculosis H37RV. It is filed as functional.
The nature of data set [2]: Partition coefficient, log P of the compound. It is filed as physicochemical. Particulars: octanol/water.
Data set [3] concerns the target T1, Enoyl-[acyl-carrier-protein] reductase [NADH] (Mycobacterium tuberculosis, UniProt P9WGR1).
T1 sequence (P9WGR1 whole entry): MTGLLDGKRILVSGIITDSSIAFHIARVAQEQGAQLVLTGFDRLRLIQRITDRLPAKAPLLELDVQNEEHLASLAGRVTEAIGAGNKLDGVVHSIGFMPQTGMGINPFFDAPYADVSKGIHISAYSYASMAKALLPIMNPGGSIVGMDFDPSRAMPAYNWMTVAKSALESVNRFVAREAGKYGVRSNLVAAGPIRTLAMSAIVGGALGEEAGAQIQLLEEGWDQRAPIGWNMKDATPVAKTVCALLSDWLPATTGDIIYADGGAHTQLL
Description: Inhibition of Mycobacterium tuberculosis H37RV InhA

In data set [4] the target is T1, Enoyl-[acyl-carrier-protein] reductase [NADH]. Description: Inhibition of 100 nM Mycobacterium tuberculosis H37RV InhA.

As for `CCCCCCc1ccc(Oc2ncccn2)c(O)c1`, the MIC90 in data set [1] came out at 100 µg/mL (≈ 367 µM). Besides, the logP in data set [2] (read-out: LogP) was 4.46. Besides, in data set [3], the pKi was 9.00.
In data set [1], `CCCCCCc1ccc(Oc2cnccn2)c(O)c1` had an MIC90 of 6.25 µg/mL (≈ 22.9 µM). Besides, the logP in data set [2] (read-out: LogP) was determined as 4.76. The negative-log Ki (pKi) in data set [3] is 9.00.
Compound `CCCCCCc1ccc(Oc2nc(OC)cc(OC)n2)c(O)c1` came in with an MIC90 in data set [1] of 100 µg/mL (≈ 301 µM). In addition, the negative logarithm of the Ki (pKi) in data set [3] was 9.00.
As for `CCCCCCc1ccc(Oc2ccncc2)c(O)c1`, the MIC90 in data set [1] worked out at 3.13 µg/mL (≈ 11.5 µM). The lipophilicity (logP) in data set [2] (read-out: LogP) was determined as 4.93. The compound also had a pKi in data set [3] of 9.00.
In data set [1], `CCCCCCc1ccc(Oc2ccc(NC(=O)c3ccno3)cc2)c(O)c1` displayed an MIC90 greater than 200 µg/mL. For the same compound, the lipophilicity (logP) in data set [2] (read-out: LogP) stood at 5.15. Besides, in data set [3], the negative-log Ki (pKi) was 9.00.
Compound `CCCCCCc1ccc(Oc2ccc(CN3CCN(C)CC3)cc2)c(O)c1` came in with an MIC90 in data set [1] greater than 100 µg/mL. This compound had a pKi in data set [3] of 9.00.
`CCCCCCc1ccc(Oc2ccc(NC(=O)C(=O)O)cc2)c(O)c1` showed an MIC90 in data set [1] greater than 200 µg/mL. Further, the pKi in data set [3] was 9.00.
In data set [1], `CCCCCCc1ccc(Oc2ccc(NC(C)=O)cc2)c(O)c1` showed an MIC90 of 50 µg/mL (≈ 153 µM). The compound also had a pKi in data set [3] of 9.00.
`CCCCCCc1ccc(Oc2cccc(NC(=O)C(=O)O)c2)c(O)c1` returned an MIC90 in data set [1] of 130 µg/mL (≈ 364 µM). Moreover, the pIC50 in data set [4] was 6.24. In data set [3], this compound gave a pKi of 9.00.
Turning to `CCCCCCc1ccc(Oc2ccc(N)cc2)c(O)c1`, the MIC90 in data set [1] came out at 12.5 µg/mL (≈ 43.8 µM). The logP in data set [2] (read-out: LogP) amounted to 4.93.
For the compound `CCCCCCc1ccc(Oc2ccccc2NC(C)=O)c(O)c1`, the MIC90 in data set [1] was greater than 200 µg/mL. Also, the logP in data set [2] (read-out: LogP) stood at 5.28. Also, the pIC50 in data set [4] was 5.81. For the same compound, the negative logarithm of the Ki (pKi) in data set [3] was 9.00.
`CCCCCCc1ccc(Oc2ccccc2[N+](=O)[O-])c(O)c1` came in with an MIC90 in data set [1] of 12.5 µg/mL (≈ 39.6 µM). In data set [2], this compound returned a logP of 5.5. For the same compound, the negative logarithm of the Ki (pKi) in data set [3] was 9.00.
For the compound `CCCCCCc1ccc(Oc2cccc([N+](=O)[O-])c2)c(O)c1`, in data set [1], the MIC90 is 12.5 µg/mL (≈ 39.6 µM).
For the compound `CCCCCCc1ccc(Oc2ccc([N+](=O)[O-])cc2)c(O)c1`, the MIC90 in data set [1] was found to be 25 µg/mL (≈ 79.3 µM). Besides, the log partition coefficient (logP) in data set [2] is 5.64. This compound also gave a pIC50 in data set [4] of 7.05. Besides, in data set [3], the pKi was 9.00.
In data set [1], `CCCCCCc1ccc(Oc2ccccc2N)c(O)c1` had an MIC90 of 3.13 µg/mL (≈ 11 µM). The log partition coefficient (logP) in data set [2] (read-out: LogP) is 5.27.
As to `CCCCCCc1ccc(Oc2ccccn2)c(O)c1`, in data set [2] (read-out: LogP), the logP worked out at 5.06. For the same compound, in data set [4], the pIC50 is 4.94. The compound also showed a pKi in data set [3] of 9.00.
In turn, `CCCCCCc1ccc(Oc2ccccc2)c(O)c1` showed an MIC90 in data set [1] of 2.1 µg/mL (≈ 7.77 µM). Further, the logP in data set [2] (read-out: LogP) worked out at 5.76. In data set [3], this compound showed a negative logarithm of the Ki (pKi) of 9.00.
Compound `CCCCCCc1ccc(Oc2cccc(NC(C)=O)c2)c(O)c1` yielded an MIC90 in data set [1] of 100 µg/mL (≈ 305 µM). For the same compound, the negative-log IC50 (pIC50) in data set [4] is 5.25. This compound also had a pKi in data set [3] of 9.00.
`CCCCCCc1ccc(Oc2cccc(N)c2)c(O)c1`: the MIC90 in data set [1] is 100 µg/mL (≈ 350 µM). For the same compound, the negative-log Ki (pKi) in data set [3] is 9.00.
`CCCCCCc1ccc(Oc2cccc(NC(=O)c3ccno3)c2)c(O)c1` displayed an MIC90 in data set [1] greater than 200 µg/mL. In data set [2] (read-out: LogP), the lipophilicity (logP) turned out to be 5.22. In data set [4], the pIC50 was 5.92. Besides, the negative logarithm of the Ki (pKi) in data set [3] was 9.00.
As to `CCCCCCc1ccc(Oc2cccnc2)c(O)c1`, in data set [1], the MIC90 turned out to be 3.13 µg/mL (≈ 11.5 µM). In data set [3], this compound gave a pKi of 9.00.
`CCCCCCc1ccc(Oc2ccccc2NC(=O)C(=O)O)c(O)c1` displayed an MIC90 in data set [1] of 100 µg/mL (≈ 280 µM). In data set [4], this compound gave a pIC50 of 5.63. The compound further had a negative-log Ki (pKi) in data set [3] of 9.00.
`CCCCCCc1ccc(Oc2ccccc2CN2CCN(C)CC2)c(O)c1` gave a pKi in data set [3] of 9.00.
On to `CCCCCCc1ccc(Oc2ccccc2NC(=O)c2ccno2)c(O)c1`, for which, in data set [1], the MIC90 was greater than 200 µg/mL. The logP in data set [2] (read-out: LogP) was 5.76. For the same compound, in data set [3], the negative-log Ki (pKi) is 9.00.
In data set [1], `CCCCCCc1ccc(Oc2ncccn2)c(OC)c1` yielded an MIC90 of 75 µg/mL (≈ 262 µM). The compound further showed a negative-log Ki (pKi) in data set [3] of 9.00.
